For one data set, the target named is T1, ΔF508-CFTR (Homo sapiens, UniProt P13569, DEL508-508).
T1 construct: expressed in transfected cells
Briefly: Assays for detecting and measuring ΔF508-CFTR correction properties (membrane potential optical assay). In kind it is cell-based. Particulars: PercentActivity; NIH3T3 mouse fibroblasts stably expressing ΔF508-CFTR. From the text:
Assays for Detecting and Measuring ΔF508-CFTR Correction Properties of Compounds
Membrane Potential Optical Methods for Assaying ΔF508-CFTR Modulation Properties of Compounds
The optical membrane potential assay utilized voltage-sensitive FRET sensors described by Gonzalez and Tsien (See Gonzalez, J. E. and R. Y. Tsien (1995) “Voltage sensing by fluorescence resonance energy transfer in single cells” Biophys J 69(4): 1272-80, and Gonzalez, J. E. and R. Y. Tsien (1997) “Improved indicators of cell membrane potential that use fluorescence resonance energy transfer” Chem Biol 4(4): 269-77) in combination with instrumentation for measuring fluorescence changes such as the Voltage/Ion Probe Reader (VIPR) (See, Gonzalez, J. E., K. Oades, et al. (1999) “Cell-based assays and instrumentation for screening ion-channel targets” Drug Discov Today 4(9): 431-439).
These voltage sensitive assays are based on the change in fluorescence resonant energy transfer (FRET) between the membrane-soluble, voltage-sensitive dye, DiSBAC2(3), and a fluorescent phospholipid, CC2-DMPE, which is attached to the outer leaflet of the plasma membrane and acts as a FRET donor. […] The changes in fluorescence emission were monitored using VIPR™ II, which is an integrated liquid handler and fluorescent detector designed to conduct cell-based screens in 96- or 384-well microtiter plates. […]

The nature of data set [1]: Solubility of Compound 1 with and without PEG cosolvent and vitamin E TPGS. It is filed as physicochemical. The source says:
The PEG cosolvent and vitamin E TPGS induced micelle formation increase Compound 1 solubility from 7 micrograms to several milligrams per g of solution.

T1 sequence (P13569 with tags, fused parts or gaps DEL508-508): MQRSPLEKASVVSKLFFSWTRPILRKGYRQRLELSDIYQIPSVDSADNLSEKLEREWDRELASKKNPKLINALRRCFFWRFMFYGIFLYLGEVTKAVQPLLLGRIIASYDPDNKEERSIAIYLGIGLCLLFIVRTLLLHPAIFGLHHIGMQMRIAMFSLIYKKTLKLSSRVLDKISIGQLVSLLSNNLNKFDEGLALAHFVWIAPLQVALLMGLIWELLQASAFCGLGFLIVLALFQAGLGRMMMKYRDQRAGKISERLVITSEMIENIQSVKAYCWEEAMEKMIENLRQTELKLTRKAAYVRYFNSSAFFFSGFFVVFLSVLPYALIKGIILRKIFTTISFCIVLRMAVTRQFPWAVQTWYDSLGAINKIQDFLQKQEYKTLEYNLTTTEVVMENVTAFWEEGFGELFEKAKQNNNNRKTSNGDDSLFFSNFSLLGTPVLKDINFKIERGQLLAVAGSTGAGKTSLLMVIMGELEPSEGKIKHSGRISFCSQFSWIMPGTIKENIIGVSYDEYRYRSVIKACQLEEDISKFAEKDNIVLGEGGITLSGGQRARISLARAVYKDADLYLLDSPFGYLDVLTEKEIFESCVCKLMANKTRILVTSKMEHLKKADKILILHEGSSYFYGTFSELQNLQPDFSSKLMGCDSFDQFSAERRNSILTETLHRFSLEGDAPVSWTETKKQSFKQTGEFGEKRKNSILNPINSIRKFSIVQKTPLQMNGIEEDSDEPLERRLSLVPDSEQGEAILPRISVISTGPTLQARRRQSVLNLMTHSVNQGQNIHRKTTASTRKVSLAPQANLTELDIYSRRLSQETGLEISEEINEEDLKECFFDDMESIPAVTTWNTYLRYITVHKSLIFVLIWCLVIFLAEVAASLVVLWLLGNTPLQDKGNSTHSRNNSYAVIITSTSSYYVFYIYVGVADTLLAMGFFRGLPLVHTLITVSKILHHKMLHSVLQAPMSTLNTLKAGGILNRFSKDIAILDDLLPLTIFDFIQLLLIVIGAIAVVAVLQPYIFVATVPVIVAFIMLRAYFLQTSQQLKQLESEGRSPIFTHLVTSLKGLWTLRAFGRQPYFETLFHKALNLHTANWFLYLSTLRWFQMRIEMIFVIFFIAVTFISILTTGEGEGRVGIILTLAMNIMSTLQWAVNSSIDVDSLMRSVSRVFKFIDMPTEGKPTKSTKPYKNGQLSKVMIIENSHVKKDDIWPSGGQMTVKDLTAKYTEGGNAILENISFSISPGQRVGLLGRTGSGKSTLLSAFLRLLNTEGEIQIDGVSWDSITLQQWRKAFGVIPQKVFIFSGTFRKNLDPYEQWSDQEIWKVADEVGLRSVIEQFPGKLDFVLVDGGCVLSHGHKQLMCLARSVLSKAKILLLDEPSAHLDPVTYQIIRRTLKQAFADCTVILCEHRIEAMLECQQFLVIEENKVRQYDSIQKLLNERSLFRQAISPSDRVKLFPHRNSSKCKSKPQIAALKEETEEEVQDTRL

`CC(C)(CO)c1cc2cc(NC(=O)C3(c4ccc5c(c4)OC(F)(F)O5)CC3)c(F)cc2n1C[C@@H](O)CO` [Compound 1, (R)-1-(2,2-difluorobenzo[d][1,3]dioxol-5-yl)-N-(1-(2,3-dihydroxypropyl)-6-fluoro-2-(1-hydroxy-2-methylpropan-2-yl)-1H-indol-5-yl)cyclopropanecarboxamide]: on ΔF508-CFTR, the “Binned MaxEfficacy” value is given as “+++ (PercentActivity Bins: + <= 25.0 < ++ <= 100.0 < +++)”. Moreover, the “Compound 1 solubility” value in data set [1] (with PEG cosolvent and vitamin E TPGS induced micelle formation) is reported as “several”; in data set [1] (without PEG cosolvent and vitamin E TPGS), 7 micrograms per g of solution.

The values above are taken from patent US8563593B2, “Formulations of (R)-1-(2,2-difluorobenzo[D] [1,3] dioxol-5-yl)-N-(1-(2,3-dihydroxypropyl)-6-fluoro-2-(1-hydroxy-2-methylpropan-2-yl)-1H-indol-5-yl)cyclopropanecarboxamide” (Vertex Pharmaceuticals Incorporated, priority 2010, dated 2013).
